According to US8906865B2, “Treatment of inflammation and/or endotoxic shock” (ISIS Innovation Limited, priority 2007, dated 2014):

B1: Chemerin: 140 amino acid mouse Chemerin protein of Sequence ID no: 34 (protein, listed as Mus sp.)
chain: TVGTEPELSETQRRSLQVALEEFHKHPPVQLAFQEIGVDRAEEVLFSAGTFVRLEFKLQQTNCPKKDWKKPECTIKPNGRRRKCLACIKMDPKGKILGRIVHCPILKQGPQDPQELQCIKIAQAGEDPHGYFLPGQFAFS

Assays:
[1] = system: Murine peritoneal macrophages (PMΦ); test: Macrophage activation assay: LPS/IFNγ-induced inflammatory cytokine expression (ELISA, Luminex); format: cell-based, mouse; details: for Suppression of LPS/IFNγ-induced RANTES secretion (FIG. 2B) / Suppression of LPS/IFNγ-induced TNFα expression (FIG. 2B): C13m 100 pM, C15m 1 pM, C17m 1 pM, pre-treatment 1 h then LPS/IFNγ 15 h; for Percentage inhibition of LPS/IFNγ-induced inflammatory cytokine expression: RANTES / Percentage inhibition of LPS/IFNγ-induced inflammatory cytokine expression: TNFα / Percentage inhibition of LPS/IFNγ-induced inflammatory cytokine expression: IL-1β / Percentage inhibition of LPS/IFNγ-induced inflammatory cytokine expression: IL-6 / Percentage inhibition of LPS/IFNγ-induced inflammatory cytokine expression: IL-12 p40: PMΦ; for Percentage inhibition of LPS/IFNγ-induced inflammatory cytokine expression: RANTES / Percentage inhibition of LPS/IFNγ-induced inflammatory cytokine expression: TNFα: pre-treatment 1 h (0.1 pM-100 nM), then LPS 100 ng/ml + IFNγ 20 ng/ml 15 h, optimal dose (1 pM Chemerin and C15, 100 pM C13 and C19); for Percentage inhibition of LPS/IFNγ-induced inflammatory cytokine expression: IL-1β / Percentage inhibition of LPS/IFNγ-induced inflammatory cytokine expression: IL-6 / Percentage inhibition of LPS/IFNγ-induced inflammatory cytokine expression: IL-12 p40: pre-treatment 1 h, then LPS/IFNγ 15 h, 1 pM Chemerin and C15; for Optimal dose (maximal response) for suppression of LPS/IFNγ-induced cytokine expression: macrophage activation assay; for Anti-inflammatory activity in the MΦ activation assay: peptides 0.1 pM-100 nM
Protocol: Murine peritoneal macrophages (PMθ, also referred to as PMΦ herein) were cultured under various conditions: Untreated; LPS (100 ng/ml) and IFNγ (20 ng/ml) for 15 h; Chemerin (1 pM) pre-treatment for 1 h then LPS/IFNγ for 15 h; Leupeptin (protease inhibitor; 15 mg/ml) and Chemerin (1 pM) for 1 h then LPS/IFNγ for 15 h; or Dexamethasone (positive control; 1 μM pre-treatment for 1 h then LPS/IFNγ for 15 h.
Murine PMθ were cultured under various conditions: Untreated, LPS (100 ng/ml) and IFNγ (20 ng/ml) for 15 h; Chemerin peptides (at a concentration of 1 pM-100 nM) pre-treatment for 1 h then LPS/IFNγ for 15 h. […] Experiments were performed with triplicate determinations for each treatment. Representative data from five independent experiments employing cells from different groups of C57B16/J mice are shown. p<0.01 **; p<0.001 *** relative to LPS/IFNγ treated samples.
With reference to Table 1, anti-inflammatory activity of chemerin-derived peptides—Murine PMΦ were cultured as described for FIG. 1B and were challenged with LPS (100 ng/ml) and IFNγ (20 ng/ml) for 15 h with/without pre-treatment with peptides (0.1 pM-100 nM) for 1 h. […] Peptide sequences are: C11 (P144-A154; […]), C13 (P144-S156; […]), C15 (A140-A154; […]), C19 (A138-S156; […]; Seq ID: No. 37), N19 (E23-K41; […] Seq ID No: 44) and M20 (K86-K105; […] Seq ID No. 45). Control peptides: scrambled C15 (C15-S; […]) and mutant C15 (C15-M; […]; F148A & F153A). Data represent mean percentage inhibition of cytokine production by classically activated macrophages from 4-8 independent experiments as determined by ELISA and Luminex assay.
1 ml 2% BioGEL polyacrylamide beads in sterile Phosphate-Buffered Saline (PBS) were injected intraperitoneally (ip) into C57B1/6J mice. Four days after ip BioGEL administration, mice were sacrificed by the CO, method according to Home Office guidelines. Peritoneal cavities were flushed with 10 ml sterile PBS-2 mM EDTA to harvest BioGEL-evoked/elicited cellular infiltrate. Suspensions of harvested cells were centrifuged at 1000×g for 5 mins at 4° C. The supernatants were discarded and cell pellets were resuspended in 6 mls OptiMEM medium supplemented with 2 mM Glutamine, 50 units/ml Penicillin and 50 μg/ml Streptomycin. Macrophages were quantified following incubation on ice for 5-10 mins with Turk's solution using a haemocytometer. Cell suspensions (2 mls; 1.5×10^6/well) were plated in six-well tissue culture plates (35 mm diameter: Costar, UK) and allowed to adhere for 2 hours at 37° C. in a humidified atmosphere containing 5% CO2, to isolate macrophage populations by adherence. This gave greater than 95% purity assessed by cytospinning, staining of cells with Methylene Blue and Eosin and counting based on cellular morphology. Nonadherent cells (mainly granulocytes) were discarded and wells were washed three times with sterile PBS to remove loosely adherent or dead cells. […] To determine PTX sensitivity and dependency upon proteolysis, cells were pre-incubated with PTX (200 ng/ml) or Leupeptin (15 μg/ml). Additional cells were treated with peptides alone. Supernatants were harvested and stored at −20° C. until use in Enzyme-Linked Immunosorbance Assays (ELISAs) and Luminex assays. Cells were lysed to allow extraction of total RNA by the TRIZOL method. Lysates were stored at −80° C. until RNA extraction following manufacturer's guidelines (Qiagen, RNeasy Mini Prep Kit).
RANTES, Tumour necrosis factor (TNFα) and CCL9 concentrations in cell supernatants were assessed by ELISA. IL-12 p40, IL-10, IL-1β, TNFα, MCP-1 (Monocyte chemoattractant protein-1) and IL-6 levels were determined by Luminex multiplex bead assay (Bio-rad 6 plex assay). Lower limits of detection for ELISAs were 0.1-0.5 ng/ml and 10-50 pg/ml for Luminex assays.

[2] = system: PMΦ (peritoneal macrophages); test: Secondary chemotaxis assay towards conditioned media from treated macrophages; format: cell-based, mouse; details: relative to LPS/IFNγ conditioned medium
Text: Given the well established role of MΦ-derived chemoattractants in the recruitment of immune cells during inflammation (Glabinski, A. R., et al., (1998). Neuroimmunomodulation 5:166-171; Huang, D. J. et al., (2001). J. Exp. Med. 193:713-726), conditioned media was used from untreated MΦ and MΦ treated with chemerin+LPS/IFNγ, C15+LPS/IFNγ and LPS/IFNγ alone in chemotaxis assays to assess how suppression of MΦ activation by chemerin and the synthetic C-terminal peptide, C15 might affect further MΦ recruitment (See FIG. 4H).
Conditioned media from macrophages treated with C140+LPS/IFNγ, C15m+LPS/IFNγ, C17m+LPS/IFNγ and LPS/IFNγ alone were used in secondary chemotaxis assays to assess the potential pathophysiological repercussions associated with suppression of macrophage activation by C140 and its C-terminal peptides.
Cells (0.5×10^6) were allowed to migrate towards chemoattractant (Chemerin peptides) or conditioned media in the bottom well of a modified Boyden chamber over 4 h. Serum free media (SFM) was used as a negative control. Filters were fixed in 4% formalin, then nuclei were stained with DAPI and visualised. Bar graphs indicate mean Migration Index (Chemoattractant % threshold area/SFM % threshold area)±SEM for each treatment group. Each bar represents at least triplicate wells and 6 pictures taken per treatment. p<0.001 ***; p<0.01 ** significance is relative to LPS/IFNγ conditioned media unless otherwise stated. AB refers to anti-murine Chemerin antibody.
Cell migration was assessed by use of transwell membranes (ChemoTX, 6-mm diameter, 8-μm pore size). Briefly, BioGEL-elicited cells were harvested and placed on transwell membranes (250 000 cells/membrane in RPMI supplemented with 25 mM Hepes and 0.1% bovine serum albumin. Cells were allowed to migrate toward Chemerin peptides (1 pM-100 nM) for 4 h. Signal transduction via G protein-coupled receptors was blocked by preincubating cells with pertussis toxin (PTX, 200 ng/ml, Sigma-Aldrich) for 30 mins before placing cells on transwell membranes. Migrated cells on the underside of membranes were fixed (3% formaldehyde) and stained with DAPI. Migration was quantified as total pixel count of DAPI stained nuclei under the confocal microscope (2 photos/membrane and a minimum of 3 replicate wells per treatment). Images were analyzed using Metamorph Offline software to determine percentage threshold areas (TA) occupied by migrated cells. Migration indices were obtained by dividing treatment TA by serum-free media TA. For secondary chemotaxis assays ChemoTx 3-mm diameter, 8-μm pore membranes were used with 50 000 cells/membrane.

Molecule | Suppression of LPS/IFNγ-induced RANTES secretion (FIG. 2B) [1] [%] | Suppression of LPS/IFNγ-induced TNFα expression (FIG. 2B) [1] [%] | Percentage inhibition of LPS/IFNγ-induced inflammatory cytokine expression: RANTES [1] [%] | Percentage inhibition of LPS/IFNγ-induced inflammatory cytokine expression: TNFα [1] [%] | Percentage inhibition of LPS/IFNγ-induced inflammatory cytokine expression: IL-1β [1] [%] | Percentage inhibition of LPS/IFNγ-induced inflammatory cytokine expression: IL-6 [1] [%] | Percentage inhibition of LPS/IFNγ-induced inflammatory cytokine expression: IL-12 p40 [1] [%] | Optimal dose (maximal response) for suppression of LPS/IFNγ-induced cytokine expression [1] [pM] | Macrophage chemotaxis towards conditioned media from treated + LPS/IFNγ macrophages (FIG. 5) [2] | Reduction of MΦ chemotaxis towards conditioned media from treated + LPS/IFNγ macrophages (FIG. 4H) [2] [%] | Anti-inflammatory activity in the MΦ activation assay [1] | Pertussis toxin sensitivity of the effects on macrophages (FIG. 1D) ([1]; chemerin 0.1-1 pM ± PTX 200 ng/ml)
AGEDPHGYFLPGQFA (listed as Mus sp.) [C15] | 41 | 56 | 47 | 61 | 54 | 43 | 47 | 1 | reduced chemotaxis | 55 |  | 
AGEDPHGYFLPGQFAFS (listed as Mus sp.) [C17m] | 49 | 66 |  |  |  |  |  |  | reduced chemotaxis |  |  | 
AGEDPHGYALPGQAA (Mutant C15) [C15-M, control peptide, mutant C15 (F148A & F153A), reference compound] |  |  | 0 | 0 |  |  |  |  |  |  | devoid of anti-inflammatory activity | 
GLFHDQAGPPAGYEF (Scrambled C15) [C15-S, control peptide, scrambled C15, reference compound] |  |  | 0 | 0 |  |  |  |  |  |  | devoid of anti-inflammatory activity | 
B1 |  |  | 40 | 70 | 60 | 42 | 54 | 1 | reduced chemotaxis | 49 |  | pertussis toxin-sensitive
